The source of these data is patent US9708306B2, “Benzimidazole derivatives and preparation process and pharmaceutical uses thereof” (WUHAN LL SCIENCE AND TECHNOLOGY DEVELOPMENT CO., LTD, priority 2015, dated 2017).

Each structure is given as a SMILES string.

For this experiment, the system named is renovascular hypertensive rats. Nature of the experiment: Effect on reducing blood pressure of renovascular hypertensive rats by single oral administration of potassium salt of QR01019. The settings on record: RHR; for Maximum blood pressure reduction / Variations on heart rate: 1.0 mg/kg, single oral administration. The experiment is classed as in vivo, Wistar rats. Here is the method: Wistar rats (provided by Hubei Province Disease Prevention Control Center, Wuhan, Hubei), male, weighted of 180 to 200 g, are randomly classified into 5 groups, including negative control group (0.5% CMC-Na), positive control group (1.0 mg/kg of potassium salt of Azilsartan medoxomil as the positive drug) and three groups with the test compound, QR01019 potassium salt (1.0 mg/kg), 6-8 animals per group. The unilateral renal artery of the rates were ligated to form two-kidney, one-clip renovascular hypertensive rat (RHR) models. After the surgery, the blood pressure was measured for weekly, and the measurement continued for 4 weeks. The rats whose blood pressures were steadily elevated by 4 kPa were successfully modeled rats. Before measuring blood pressure, the rat tails were heated by using a cyclic water bath tail sleeve at 39° C. to expand tail vessel, and thereafter, a tail sleeve method (BP2010A noninvasive blood pressure meter, Beijing Jiandeer Technology Limited Corporation, No. 1, Shangdi 10th Street, Haidian District, Beijing) was used to measure the blood pressures and heart rates of the rats before the administrations and at 1, 3, 5, 7, and 10 hours after oral administration, and each of the time points was measured three times to take the mean value. Maximum Blood pressure reduction (%)=maximum blood pressure reduction value after the administration/blood pressure value before the administration*100%.

For the compound `CCOc1nc2cccc(C(=O)OCc3oc(=O)oc3C)c2n1Cc1ccc(-c2ccccc2-c2noc(=O)[n-]2)cc1.[K+]` [Positive control, potassium salt of Azilsartan medoxomil, reference compound], the “Maximum blood pressure reduction” value is 34 ± 3.6% and the “Variations on heart rate” value is listed as −14 ± 7%.

Regarding `CCOc1nc2cccc(C(=O)OC(C)OC(=O)OCc3nc(C)c(C)nc3C)c2n1Cc1ccc(-c2ccccc2-c2noc(=O)[nH]2)cc1.[K]` (stereo not drawn) [QR01019 potassium salt], the “Maximum blood pressure reduction” value was 38 ± 4.3% and the “Variations on heart rate” value is −18 ± 5%. Further, under “result in words”, the “regulation on the heart rate compared with positive control group” value is listed as “obviously superior to the positive control group”. The “blood pressure reduction effect compared with control group” value (same dosage, result in words) is “significant blood pressure reduction effect”.
